# Values of other authors, collected in patent publication US20220313684A1, “PHARMACEUTICAL COMPOSITION COMPRISING IRINOTECAN FREE BASE FOR ORAL ADMINISTRATION” (DAE HWA PHARMA. CO., LTD., priority 2019, published 2022).
# Conditions: oral administration of irinotecan; reported (EP 2328557)
smiles,measurement,value
"CCc1c2c(nc3ccc(OC(=O)N4CCC(N5CCCCC5)CC4)cc13)-c1cc3c(c(=O)n1C2)COC(=O)[C@]3(O)CC [irinotecan, (S)-4,11-diethyl-3,4,12,14-tetrahydro-4-hydroxy-3,14-dioxo-1H-pyrano[3′,4′:6,7]-indolizino[1,2-b]quinolin-9-yl [1,4′bipiperidine]-1′-carboxylate]",bioavailability upon oral administration,9%
